In one assay the test system is conscious CD rats. The assay is described as follows: Effects of 11CBy antagonists on plasma glucagon and blood glucose levels (rat glucagon secretion model). In kind it is in vivo.
Assay [1] has as its target T1, 353 form of the 11CBy receptor (Homo sapiens, UniProt Q99705).
T1 construct: expressed in transfected cells; well washed membranes
The assay is described as follows: Radioligand ([125I]-MCH) competitive binding on membranes from HEK293 cells stably expressing 11CBy receptors. As to conditions: [125I]-MCH 0.22 nM, 45 min 37° C., pH7.4, pKi calculated from IC50. How it is done: Membranes ([…] protein) were incubated with [^125I]-Melanin Concentrating Hormone (0.22 nM) (obtained from NEN) in the presence and absence of competing test compounds for 45 min at 37° C. in a buffer (pH7.4), containing 50 mM Tris and 0.2% BSA. Non-specific binding was defined using […] Melanin Concentrating Hormone (obtained from Bachem). The test compounds were added at concentrations between […] and 10 pM in 10 concentration steps. Following incubation, the reaction was stopped by filtration through GF/B filters and washed with 4×1 ml of ice-cold 50 mM Tris buffer. Microscint 20 (Packard) was added to the filters and the radioactivity measured using a Packard TopCount. Bound cpm in the presence of test compound was expressed as a fraction of the bound cpm in the absence of test compound and plotted against the concentration of compound. From this an IC50 was determined from which the pKi was calculated.

[2] abbreviates: Example A4 15 mg/kg + MCH group, 5 min.
[3] abbreviates: Example A4 15 mg/kg + MCH group, 15 min.
Setting [4] is: Example A4 15 mg/kg + MCH group, time 0.

Where no end group is shown, it is not given here.

T1 sequence (Q99705 whole entry): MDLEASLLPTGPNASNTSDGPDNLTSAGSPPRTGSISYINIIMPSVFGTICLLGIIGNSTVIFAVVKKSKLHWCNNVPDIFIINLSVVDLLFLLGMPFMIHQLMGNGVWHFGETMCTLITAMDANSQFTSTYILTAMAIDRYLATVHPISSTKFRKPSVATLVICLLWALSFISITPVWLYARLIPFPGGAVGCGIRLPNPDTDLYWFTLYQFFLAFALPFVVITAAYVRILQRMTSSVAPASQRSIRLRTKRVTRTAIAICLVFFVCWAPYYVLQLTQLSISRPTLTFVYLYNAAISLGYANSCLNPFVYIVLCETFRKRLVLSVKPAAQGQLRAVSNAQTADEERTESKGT
From the text for conscious CD rats: Study of Effects of 11CBy Antagonists on Plasma Glucagon and Blood Glucose Levels

With `COc1cc(N2C(=O)c3ccc(Oc4ccccc4)cc3C2=O)ccc1OCCN1CCCC1.Cl` [Example A4, 2-[3-Methoxy-4-(2-pyrrolidin-1-yl-ethoxy)-phenyl]-5-phenoxy-isoindole-1,3-dione hydrochloride], the Blood glucose was 6.46 ± 0.46 (7) mmol/l with conscious CD rats (setting [2]), 7.71 ± 0.43 (7) mmol/l in the assay on conscious CD rats (setting [3]) and 5.35 ± 0.23 (7) mmol/l with conscious CD rats (setting [4]). The values for the Plasma glucagon in the assay with conscious CD rats (setting [2]), in the assay with conscious CD rats (setting [3]) and in the assay with conscious CD rats (setting [4]) were 30.85 ± 2.01 (7) pg/ml, 22.87 ± 0.56 (5) pg/ml and 23.45 ± 1.16 (7) pg/ml, respectively. Further, the “rise in plasma glucagon” value in the assay on conscious CD rats (Example A4 15 mg/kg iv five minutes prior to iv MCH bolus, after 5 minutes) was “no rise”; in the assay on conscious CD rats (Example A4 15 mg/kg iv five minutes prior to iv MCH bolus, after 15 min), 2.7%. The same compound returned a blood glucose increase in the assay with conscious CD rats (Example A4 15 mg/kg iv five minutes prior to iv MCH bolus, time not given) of 44%. The “pKi in binding to the 353 form of the 11CBy receptor” value in assay [1] is on record as 7.7.
On to `COc1cc(N2C(=O)c3ccc(Nc4ccccc4)cc3C2=O)ccc1OCCN1CCCC1` [Example A5, 2-[3-Methoxy-4-(2-pyrrolidin-1-yl-ethoxy)-phenyl]-5-phenylamino-isoindole-1,3-dione], for which, in assay [1], the Ki is 0.01 to 0.0316 µM.
Same read-out and setting: under `COc1cc(-n2nnc3cc(-c4ccccc4)ccc3c2=O)ccc1OCCN1CCCC1` [Example C5, 3-[3-Methoxy-4-(2-pyrrolidin-1-yl-ethoxy)-phenyl]-7-phenyl-3H-benzo[d][1,2,3]triazin-4-one] stands 0.01 to 0.0316 µM.
Turning to `COc1cc(-n2cnc3cc(-c4ccccc4)sc3c2=O)ccc1OCCN1CCCC1` [Example F1, 3-[3-Methoxy-4-(2-pyrrolidin-1-yl-ethoxy)-phenyl]-6-phenyl-3H-thieno[3,2-d]pyrimidin-4-one], the Ki in assay [1] was 0.01 to 0.0316 µM.
In the case of “MCH (DFDMLRCMLGRVYRPCWQV; ends and bridges not checked; cysteine pairing not given here; UniProt P20382 147-165, looked up) [reference compound]”, the Blood glucose in the assay on conscious CD rats (MCH 50 ug/kg group, 5 min) was 6.5 ± 0.33 (7) mmol/l; with conscious CD rats (MCH 50 ug/kg group, 15 min), 11.81 ± 1.27 (7) mmol/l; in the assay on conscious CD rats (MCH 50 ug/kg group, time 0), 5.87 ± 0.22 (7) mmol/l. The Plasma glucagon in the assay on conscious CD rats (MCH 50 ug/kg group, 5 min) is on record as 35.16 ± 2.5 (7) pg/ml; in the assay on conscious CD rats (MCH 50 ug/kg group, 15 min), 28.67 ± 1.61 (7) pg/ml; in the assay on conscious CD rats (MCH 50 ug/kg group, time 0), 23.6 ± 1.2 (6) pg/ml. The “increase in plasma glucagon from the pre-treatment value” in the assay on conscious CD rats (MCH 50 ug/kg iv alone, after 5 minutes) is reported as 48.7%; with conscious CD rats (MCH 50 ug/kg iv alone, after 15 minutes), 21%. Also, the “maximum rise in blood glucose concentration” value with conscious CD rats (MCH 50 ug/kg iv alone, after 15 min) came out at 101%.

Values taken from US7220777B2, “Lactam derivatives as antagonists for human 11cby receptors” (SmithKline Beecham P.L.C., priority 2001, dated 2007).
